Data: publication PMC10935294, “Biodirected Screening and Preparation of Larimichthys crocea Angiotensin-I-Converting Enzyme-Inhibitory Peptides by a Combined In Vitro and In Silico Approach” (Molecules, 2024)
Like-named read-outs stand apart in the source and are kept apart here. No end group written: not given here.

Tests used:
ACE [1] = target: T1, ACE (Oryctolagus cuniculus, UniProt P12822); details: cited from earlier work
T1 sequence (P12822 34-1310): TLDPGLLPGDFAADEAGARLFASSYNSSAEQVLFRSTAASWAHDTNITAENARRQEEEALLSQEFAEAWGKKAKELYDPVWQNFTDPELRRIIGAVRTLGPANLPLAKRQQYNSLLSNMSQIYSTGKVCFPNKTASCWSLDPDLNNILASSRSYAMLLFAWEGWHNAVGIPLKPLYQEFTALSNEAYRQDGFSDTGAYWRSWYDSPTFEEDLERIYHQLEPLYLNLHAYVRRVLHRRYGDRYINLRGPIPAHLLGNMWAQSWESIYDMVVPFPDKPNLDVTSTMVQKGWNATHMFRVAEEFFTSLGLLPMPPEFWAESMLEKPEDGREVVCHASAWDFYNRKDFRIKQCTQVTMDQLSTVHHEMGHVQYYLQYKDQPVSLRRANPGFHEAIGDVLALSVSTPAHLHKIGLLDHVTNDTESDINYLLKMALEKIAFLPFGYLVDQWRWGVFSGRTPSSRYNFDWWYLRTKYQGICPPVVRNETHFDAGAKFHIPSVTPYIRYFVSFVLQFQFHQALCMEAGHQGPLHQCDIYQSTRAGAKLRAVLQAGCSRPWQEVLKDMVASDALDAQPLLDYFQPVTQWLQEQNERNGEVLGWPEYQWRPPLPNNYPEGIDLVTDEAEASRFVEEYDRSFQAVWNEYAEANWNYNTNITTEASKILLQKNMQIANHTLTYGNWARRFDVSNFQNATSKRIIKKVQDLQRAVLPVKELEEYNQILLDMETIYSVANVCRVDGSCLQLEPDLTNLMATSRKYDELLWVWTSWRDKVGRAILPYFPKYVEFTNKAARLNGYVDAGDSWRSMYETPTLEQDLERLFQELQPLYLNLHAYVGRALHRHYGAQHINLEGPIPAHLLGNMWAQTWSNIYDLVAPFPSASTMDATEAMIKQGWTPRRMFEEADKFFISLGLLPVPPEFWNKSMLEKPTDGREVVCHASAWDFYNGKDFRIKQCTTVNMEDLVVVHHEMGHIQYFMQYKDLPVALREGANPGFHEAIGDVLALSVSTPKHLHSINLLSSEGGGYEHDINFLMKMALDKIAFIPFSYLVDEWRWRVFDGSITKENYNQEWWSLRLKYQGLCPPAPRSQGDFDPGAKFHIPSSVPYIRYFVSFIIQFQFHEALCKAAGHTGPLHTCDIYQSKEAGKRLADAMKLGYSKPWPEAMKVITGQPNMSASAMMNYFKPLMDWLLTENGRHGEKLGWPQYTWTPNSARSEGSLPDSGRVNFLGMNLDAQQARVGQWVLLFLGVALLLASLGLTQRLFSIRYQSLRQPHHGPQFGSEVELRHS

ACE [2] = target: T1, ACE; assay: ACE-inhibitory activity (HHL substrate, HPLC determination of hippuric acid); format: biochemical; details: synthetic peptides, n = 3, mean ± SD; read-out: IC50 value before digestion
Method: (§1) The methods were previously established in our laboratory. […] Then, 60 μL of peptide samples (1 mg/mL) and 20 μL of ACE solution (0.1 U/mL) were placed in a 37 °C water bath for 10 min, and 50 μL of hippuryl-histidyl-leucine (HHL) solution (1 mM) was added to react for 60 min. Finally, the reaction was terminated by adding 1 M HCL (100 μL). The sample solution of the determination group was replaced by 60 μL boric acid buffer solution (pH = 8.3 0.3 M NaCl) in the control tube. Then, 10 μL boric acid buffer was put into the blank control tube instead of the ACE solution used in the control group. Column chromatography conditions were as follows: Waters-C18, 5 μm, 4.6 mm × 250 mm; detection wavelength: 228 nm; mobile phase: 80% A: 0.1% formic acid + 0.1% trifluoroacetic acid + 98% deionized water, 20% B: 100% acetonitrile; flow rate: 0.8 mL/min; column temperature: 30 °C; injection volume: 10 μL. The ACE-inhibition rate was calculated by Formula (1):(1) ACEinhibitoryrate%=(HAc−HAs)/([HA]c−[HA]H)×100% where HA is the concentration of hippuric acid, [HA]c is the concentration of HA in the control sample, [HA]s is the sample HA concentration, and [HA]H is the blank control HA concentration. The IC50 value was defined as the inhibitor concentration inhibiting 50% of ACE activity. First, the in vitro ACE inhibition rate was determined for samples of different concentrations. Then, the fitting curve and equation were drawn with the sample mass concentration as abscissa and ACE inhibition rate as ordinate. The value of IC50 was calculated according to the fitted curve.

ACE [3] = target: T1, ACE; assay: ACE-inhibitory activity after simulated in vitro gastrointestinal digestion (pepsin, trypsin); format: biochemical; details: pepsin pH 2, 2 h, then trypsin pH 7.5, 2 h, 37 °C; mean ± SD
Method: as §1
A slight modification of the research methodology based on the previous study was implemented. With slight modification, the peptide samples were dissolved in deionized water (1 mg/mL), adjusted the pH to 2 with 1 M HCl, pepsin (2% w/w) was added, and the reaction was run for 2 h at 37 °C in the temperature shaker. The reaction was adjusted to pH = 7.5 with 2 M NaOH, and trypsin (2% w/w) was added for 2 h. Then, it was placed in boiling water at 100 °C for 10 min and finally removed to wait for the temperature to decrease to room temperature and centrifuged to detect their ACE activity.

For FDGSPVGY, the “Form of ACE inhibition” value (ACE [1]) is given as “competitively combine with the center site of ACE”.

For “FYEPFM [FYEPFM, Phe-Tyr-Glu-Pro-Phe-Met]”, the IC50 (ACE [2]) was 10.3 ± 0.21 µM and the IC50 (ACE [3]) was 11.4 ± 0.43 µM.

In the case of “IHFGTTGK [IHFGTTGK, Ile-His-Phe-Gly-Thr-Thr-Gly-Lys]”, the IC50 (ACE [2]) is reported as 5.34 ± 0.15 µM and the IC50 (ACE [3]) is reported as 33.73 ± 0.23 µM.

“INEMLDTK [INEMLDTK, Ile-Asn-Glu-Met-Leu-Asp-Try-Lys]” gave an IC50 (ACE [2]) of 6.53 ± 0.21 µM and an IC50 (ACE [3]) of 15.65 ± 0.15 µM.

For “IPYADFK [IPYADFK, Ile-Pro-Tyr-Ala-Asp-Phe-Lys]”, the IC50 (ACE [2]) was 0.63 ± 0.09 µM and the IC50 (ACE [3]) was 0.8 ± 0.08 µM.

Substance “LYDHLGK [LYDHLGK, Leu-Tyr-Asp-His-Leu-Gly-Lys]” has an IC50 (ACE [2]) of 9.41 ± 0.24 µM and an IC50 (ACE [3]) of 24.3 ± 0.29 µM.

For “NWPWMK [NWPWMK, Asn-Trp-Pro-Trp-Met-Lys]”, the IC50 (ACE [2]) was 6.23 ± 0.34 µM and the IC50 (ACE [3]) was 7.27 ± 0.17 µM.

In the case of Tyr-Asn-Leu [YNL], the Reported activity (ACE [1]) is listed as “ACE-inhibitory activity”.

In the case of VFDGVLRPGQ, the “Form of ACE inhibition” value (ACE [1]) is listed as “non-competitive inhibition”.

In the case of VGLFPSRSF, the “Form of ACE inhibition” value (ACE [1]; peptide from tilapia skin) is listed as “non-competitive inhibition”.

In the case of VVLASLK, the IC50 (ACE [1]; peptides from Pacific saury) is given as 962 µM.
